Patent US8299065B2, “Antibacterial condensed thiazoles” (Biota Europe Ltd., priority 2007, dated 2012)
In brackets after ≈: the same amount, converted by molar mass.

The molecules below were run on Enterococcus faecalis ATCC 29212 (assay: MIC testing against Enterococcus faecalis ATCC 29212). Conditions: ATCC29212, read-out: MICs against Enterococcus faecalis, Activity.
Type: cell-based
Description: Minimum Inhibitory Concentration (MIC) Testing Compounds of this invention were tested for antimicrobial activity by susceptibility testing in liquid or on solid media. MICs for compounds against each strain were determined by the broth microdilution or agar dilution method according to the guidelines of the Clinical Laboratories and Standards Institute, formerly the National Committee for Clinical Laboratory Standards (Clinical Laboratories and Standards Institute. Methods for Dilution Antimicrobial Susceptibility Tests for Bacteria That Grow Aerobically; Approved Standard—Seventh Edition. Document M7-A7. CLSI, Wayne, Pa., 2006; Clinical Laboratories and Standards Institute. Methods for Antimicrobial Susceptibility Testing of Anaerobic Bacteria; Approved Standard—Sixth Edition. Document M11-A6. CLSI, Wayne, Pa., 2004).

SMILES	MIC [µg/mL]
CCNC(=O)Nc1nc2cc(-c3cccnc3)ccc2s1 [Example 1, 1-Ethyl-3-(5-pyridin-3-yl-benzothiazol-2-yl)-urea]	0.25 to 1 (≈ 0.838 to 3.35 µM)
CCNC(=O)Nc1nc2cc(-c3ccc(CC(=O)NC)nc3)ccc2s1 [Example 2, 2-{5-[2-(3-Ethyl-ureido)-benzothiazol-5-yl]-pyridin-2-yl}-N-methyl-acetamide]	2 to 16 (≈ 5.41 to 43.3 µM)
CCNC(=O)Nc1nc2cc(-c3ccc4nncn4c3)ccc2s1 [Example 5, 1-(5-([1,2,4]triazolo[4,3-a]pyridin-6-yl)benzo[d]thiazol-2-yl)-3-ethylurea]	2 to 16 (≈ 5.91 to 47.3 µM)
CCNC(=O)Nc1nc2cc(-c3ccc4nccn4c3)ccc2s1 [Example 6, 1-ethyl-3-(5-(imidazo[1,2-a]pyridin-6-yl)benzo[d]thiazol-2-yl)urea]	2 to 16 (≈ 5.93 to 47.4 µM)
CCNC(=O)Nc1nc2cc(-c3ccc4nnnn4c3)ccc2s1 [Example 7, 1-ethyl-3-(5-(tetrazolo[1,5-a]pyridin-6-yl)benzo[d]thiazol-2-yl)urea]	2 to 16 (≈ 5.89 to 47.1 µM)
CCNC(=O)Nc1nc2cc(-c3cnc4c(c3)OCCN4)ccc2s1 [Example 8, 1-(5-(3,4-dihydro-2H-pyrido[3,2-b][1,4]oxazin-7-yl)benzo[d]thiazol-2-yl)-3-ethylurea]	2 to 16 (≈ 5.63 to 45 µM)
CCNC(=O)Nc1nc2cc(-c3ccc(CO)nc3)ccc2s1 [Example 9, 1-ethyl-3-(5-(6-(hydroxymethyl)pyridin-3-yl)benzo[d]thiazol-2-yl)urea]	2 to 16 (≈ 6.09 to 48.7 µM)
CCNC(=O)Nc1nc2cc(-c3cnc(-n4ccccc4=O)cn3)ccc2s1 [Example 10, 1-ethyl-3-(5-(5-(2-oxopyridin-1(2H)-yl)pyrazin-2-yl)benzo[d]thiazol-2-yl)urea]	2 to 16 (≈ 5.1 to 40.8 µM)
CCNC(=O)Nc1nc2cc(-c3cnc(CO)n3C)ccc2s1 [Example 11, 1-ethyl-3-(5-(2-(hydroxymethyl)-1-methyl-1H-imidazol-5-yl)benzo[d]thiazol-2-yl)urea]	2 to 16 (≈ 6.03 to 48.3 µM)
CCNC(=O)Nc1nc2cc(-c3ccc(=O)n(CC(=O)OCC)c3)ccc2s1 [Example 12, ethyl 2-(5-(2-(3-ethylureido)benzo[d]thiazol-5-yl)-2-oxopyridin-1(2H)-yl)acetate]	2 to 16 (≈ 4.99 to 40 µM)
CCNC(=O)Nc1nc2cc(-c3ccc(=O)n(CCOCC)c3)ccc2s1 [Example 13, 1-(5-(1-(2-ethoxyethyl)-6-oxo-1,6-dihydropyridin-3-yl)benzo[d]thiazol-2-yl)-3-ethylurea]	2 to 16 (≈ 5.17 to 41.4 µM)
CCNC(=O)Nc1nc2cc(-c3cc(C)oc(=O)c3)ccc2s1 [Example 14, 1-ethyl-3-(5-(6-methyl-2-oxo-2H-pyran-4-yl)benzo[d]thiazol-2-yl)urea]	2 to 16 (≈ 6.07 to 48.6 µM)
CCNC(=O)Nc1nc2cc(-c3ccc(C(=O)OC)nc3)ccc2s1 [Example 15, methyl 5-(2-(3-ethylureido)benzo[d]thiazol-5-yl)picolinate]	2 to 16 (≈ 5.61 to 44.9 µM)
CCNC(=O)Nc1nc2cc(-c3cnn(CCN4CCOCC4)c3)ccc2s1 [Example 16, 1-ethyl-3-(5-(1-(2-morpholinoethyl)-1H-pyrazol-4-yl)benzo[d]thiazol-2-yl)urea]	2 to 16 (≈ 4.99 to 39.9 µM)
CCNC(=O)Nc1nc2cc(-c3cc[nH]n3)ccc2s1 [Example 17, 1-(5-(1H-pyrazol-3-yl)benzo[d]thiazol-2-yl)-3-ethylurea]	2 to 16 (≈ 6.96 to 55.7 µM)
CCNC(=O)Nc1nc2cc(-c3cnn(C)c3)ccc2s1 [Example 18, 1-ethyl-3-(5-(1-methyl-1H-pyrazol-4-yl)benzo[d]thiazol-2-yl)urea]	2 to 16 (≈ 6.64 to 53.1 µM)
CCNC(=O)Nc1nc2cc(-c3cnc4c(c3)OCCN4C)ccc2s1 [Example 19, 1-ethyl-3-(5-(4-methyl-3,4-dihydro-2H-pyrido[3,2-b][1,4]oxazin-7-yl)benzo[d]thiazol-2-yl)urea]	0.25 to 1 (≈ 0.677 to 2.71 µM)
CCNC(=O)Nc1nc2cc(-c3cncc4ccccc34)ccc2s1 [Example 20, 1-ethyl-3-(5-(isoquinolin-4-yl)benzo[d]thiazol-2-yl)urea]	0.25 to 1 (≈ 0.718 to 2.87 µM)
CCNC(=O)Nc1nc2cc(-c3cn[nH]c3)ccc2s1 [Example 21, 1-(5-(1H-pyrazol-4-yl)benzo[d]thiazol-2-yl)-3-ethylurea]	2 to 16 (≈ 6.96 to 55.7 µM)

Second part, the molecule after the results:

MIC [µg/mL]	SMILES
2 to 16 (≈ 5.98 to 47.8 µM)	CCNC(=O)Nc1nc2cc(-c3cnc(OC)s3)ccc2s1 [Example 22, 1-ethyl-3-(5-(2-methoxythiazol-5-yl)benzo[d]thiazol-2-yl)urea]
2 to 16 (≈ 6.24 to 49.9 µM)	CCNC(=O)Nc1nc2cc(-c3cnc(O)s3)ccc2s1 [Example 23, 1-ethyl-3-(5-(2-hydroxythiazol-5-yl)benzo[d]thiazol-2-yl)urea]
2 to 16 (≈ 5.93 to 47.4 µM)	CCNC(=O)Nc1nc2cc(-c3cnc4ccccn34)ccc2s1 [Example 24, 1-ethyl-3-(5-(imidazo[1,2-a]pyridin-3-yl)benzo[d]thiazol-2-yl)urea]
0.25 to 1 (≈ 0.739 to 2.96 µM)	CCNC(=O)Nc1nc2cc(-c3ccc4ncnn4c3)ccc2s1 [Example 25, 1-(5-([1,2,4]triazolo[1,5-a]pyridin-6-yl)benzo[d]thiazol-2-yl)-3-ethylurea]
2 to 16 (≈ 5.63 to 45 µM)	CCNC(=O)Nc1nc2cc(-c3ccc(NC(C)=O)nc3)ccc2s1 [Example 26, N-(5-(2-(3-ethylureido)benzo[d]thiazol-5-yl)pyridin-2-yl)acetamide]
2 to 16 (≈ 5.22 to 41.7 µM)	CCNC(=O)Nc1nc2cc(-c3ccc(N4CCOCC4)nc3)ccc2s1 [Example 27, 1-ethyl-3-(5-(6-morpholinopyridin-3-yl)benzo[d]thiazol-2-yl)urea]
2 to 16 (≈ 5.47 to 43.8 µM)	CCNC(=O)Nc1nc2cc(-c3cnc(-n4ccnc4)nc3)ccc2s1 [Example 28, 1-(5-(2-(1H-imidazol-1-yl)pyrimidin-5-yl)benzo[d]thiazol-2-yl)-3-ethylurea]
2 to 16 (≈ 6.36 to 50.9 µM)	CCNC(=O)Nc1nc2cc(-c3cc[nH]c(=O)c3)ccc2s1 [Example 29, 1-ethyl-3-(5-(2-oxo-1,2-dihydropyridin-4-yl)benzo[d]thiazol-2-yl)urea]
0.25 to 1 (≈ 0.657 to 2.63 µM)	CCNC(=O)Nc1nc2cc(-c3ccc(-c4nnn(C)n4)nc3)ccc2s1 [Example 30, 1-ethyl-3-(5-(6-(2-methyl-2H-tetrazol-5-yl)pyridin-3-yl)benzo[d]thiazol-2-yl)urea]
0.25 to 1 (≈ 0.647 to 2.59 µM)	CCNC(=O)Nc1nc2cc(-c3cc(C)n(CCOC)c(=O)c3)ccc2s1 [Example 31, 1-ethyl-3-(5-(1-(2-methoxyethyl)-6-methyl-2-oxo-1,2-dihydropyridin-4-yl)benzo[d]thiazol-2-yl)urea]
2 to 16 (≈ 5.37 to 43 µM)	CCNC(=O)Nc1nc2cc(-c3cc(C)n(CCO)c(=O)c3)ccc2s1 [Example 32, 1-ethyl-3-(5-(1-(2-hydroxyethyl)-6-methyl-2-oxo-1,2-dihydropyridin-4-yl)benzo[d]thiazol-2-yl)urea]
0.25 to 1 (≈ 0.577 to 2.31 µM)	CCNC(=O)Nc1nc2cc(-c3cc(C)n(Cc4cccc(C)n4)c(=O)c3)ccc2s1 [Example 33, 1-ethyl-3-(5-(6-methyl-1-((6-methylpyridin-2-yl)methyl)-2-oxo-1,2-dihydropyridin-4-yl)benzo[d]thiazol-2-yl)urea]
0.25 to 1 (≈ 0.596 to 2.38 µM)	CCNC(=O)Nc1nc2cc(-c3cc(C)n(Cc4cccnc4)c(=O)c3)ccc2s1 [Example 34, 1-ethyl-3-(5-(6-methyl-2-oxo-1-(pyridin-3-ylmethyl)-1,2-dihydropyridin-4-yl)benzo[d]thiazol-2-yl)urea]
0.25 to 1 (≈ 0.596 to 2.38 µM)	CCNC(=O)Nc1nc2cc(-c3cc(C)n(Cc4ccccn4)c(=O)c3)ccc2s1 [Example 35, 1-ethyl-3-(5-(6-methyl-2-oxo-1-(pyridin-2-ylmethyl)-1,2-dihydropyridin-4-yl)benzo[d]thiazol-2-yl)urea]
